Measurements reported in patent US20050250677A1, “Glycopeptide antibiotic derivatives” (priority 2002, published 2005).
Read-outs that look alike come from different tables or passages of the source.

Assays:
HIV-1 (HE) = assay: Inhibition of HIV-1 (HE)-induced cytopathicity in CEM/0 cells; format: cell-based
[1] = tested on: mutant HIV-1 strain Tyr-181-Cys; assay: Anti-HIV-1 activity against mutant HIV-1 strain Tyr-181-Cys in CEM cultures; format: cell-based
FCK cells = conditions: read-out: CC50 FCK; FCK cells
HIV = assay: Selection of resistant HIV strains in cell culture; format: cell-based; conditions: ≧9 weeks of attempts in cell culture
FCV = assay: Feline corona virus assay in Feline Crandel kidney cells (MTS); format: cell-based; conditions: read-out: EC50 FCV
Procedure: Feline Crandel kidney cells were seeded in 96-well microtiter plates at 24,000 cells/well. Then, 24 hrs later, an appropriate inoculum of FCV is added together with 5-fold dilutions of the test compounds. After 4 days, a MTS/PMS solution was added to each well. Following a 90 min incubation period at 37° C., the optical density of the wells was read at 498 nm in a microplate reader.

Vero cells = conditions: read-out: CC50 Vero
HIV-1 (MN) = assay: Inhibition of HIV-1 (MN)-induced cytopathicity in CEM/0 cells; format: cell-based
murine leukemia L1210 = assay: Cytostatic activity assay, L1210 cells; format: cell-based; conditions: read-out: IC50 L1210 (compound concentration required to inhibit tumor cell proliferation by 50%)
[2] = tested on: mutant HIV-1 strain Lys-103-Asn; assay: Anti-HIV-1 activity against mutant HIV-1 strain Lys-103-Asn in CEM cultures; format: cell-based
[3] = tested on: SARS virus (strain Frankfurt-1); assay: microbe, parasite or virus in culture; format: cell-based, human corona (SARS) virus; conditions: read-out: EC50 SARS virus
[4] = tested on: mutant HIV-1 strain Leu-100-Ile; assay: Anti-HIV-1 activity against mutant HIV-1 strain Leu-100-Ile in CEM cultures; format: cell-based
HIV-1 (IIIB) [5] = assay: Inhibition of HIV-1 (IIIB)-induced cytopathicity in C8166 cells; format: cell-based
HIV-1 (IIIB) [6] = assay: Inhibition of HIV-1 (IIIB)-induced cytopathicity (giant cell formation) in CEM cells; format: cell-based
Procedure: (§1) A variety of glycopeptide antibiotic derivatives of vancomycin, eremomycin and teicoplanin including their aglycon derivatives were evaluated for their inhibitory activity against HIV-1 (IIIB) and HIV-2(ROD) in CEM cell cultures.

HIV-1(HE) = assay: Inhibition of HIV-1 (HE)-induced cytopathicity in MOLT4/C8 cells; format: cell-based
human lymphocyte CEM = assay: Cytostatic activity assay, CEM cells; format: cell-based; conditions: read-out: IC50 CEM (compound concentration required to inhibit tumor cell proliferation by 50%)
[7] = tested on: human lymphocyte Molt4/clone 8; assay: Cytostatic activity assay, Molt4/clone 8 cells; format: cell-based; conditions: read-out: IC50 Molt4/C8 (compound concentration required to inhibit tumor cell proliferation by 50%)
HIV-2(ROD) = assay: Inhibition of HIV-2 (ROD)-induced cytopathicity (giant cell formation) in CEM cells; format: cell-based; conditions: read-out: EC50 HIV-2 (concentration required to inhibit HIV-induced giant cell formation by 50%); HIV-2, CEM cell cultures
Procedure: as §1

[8] = tested on: mutant HIV-1 strain Tyr-188-His; assay: Anti-HIV-1 activity against mutant HIV-1 strain Tyr-188-His in CEM cultures; format: cell-based
Procedure: (§2) Inhibition of HIV-1 (IIIB, HE, HN) and HIV-2(ROD, EHO, RF)-induced cytopathicity in CEM or C8166 or Molt4/C8 cells was measured in microtiter 96-well plates containing ˜3×10^5 CEM cells/ml, infected with 100 CCID50 of HIV per ml and containing appropriate dilutions of the test compounds. After 4 to 5 days of incubation at 37° C. in a CO2-controlled humidified atmosphere, CEM, C8166 or Molt4/C8 giant (syncytium) cell formation was examined microscopically.

HIV-2 (EHO) = conditions: read-out: EC50 CEM/0 HIV-2 (EHO); CEM/0 cells
Procedure: as §2

HIV-2 (RF) = conditions: read-out: EC50 CEM/0 HIV-2 (RF); CEM/0 cells
Procedure: as §2

HEL cells [9] = tested on: HEL cells
VZV (wild-type strains) = assay: Anti-VZV assay (wild-type strains): virus-induced cytopathicity in HEL cell cultures; format: cell-based, varicella-zoster virus; conditions: HEL cell cultures
HEL cells [10] = conditions: read-out: CC50 (HEL), HEL cells
CMV = assay: Anti-CMV assay: virus-induced cytopathicity in HEL cell cultures
in vitro [11] = conditions: cat
in vitro [12] = conditions: monkey (simian)
[13] = CEM cultures, wild type in mutant panel, read-out: EC50 HIV-1 IIIB
[14] = CEM/0 cells, read-out: EC50 CEM/0 HIV-1 (IIIB)
[15] = read-out: EC50 HIV-1 (concentration required to inhibit HIV-induced giant cell formation by 50%), HIV-1, CEM cell cultures
[16] = Severe acute respiratory syndrome coronavirus, Vero

| SMILES | EC50 (HIV-1 (HE)) [µM] | CC50 (FCK cells) [µM] | EC50 (FCV; FCV in FCK cells) [µM] | CC50 (Vero cells) [µM] | EC50 (HIV-1 (MN)) [µM] | IC50 (murine leukemia L1210) [µM] | EC50 ([3]; SARS virus in Vero cells) [µM] | EC50 [4] [µM] | EC50 (HIV-1 (IIIB) [5]) [µM] | EC50 (HIV-1 (IIIB) [6]; [13]) [µM] | EC50 (HIV-1 (IIIB) [6]; [14]) [µM] | EC50 (HIV-1 (IIIB) [6]; [15]) [µM] | EC50 (HIV-1(HE)) [µM] | IC50 (human lymphocyte CEM) [µM] | IC50 [7] [µM] | EC50 (HIV-2(ROD)) [µM] | EC50 [8] [µM] | EC50 (HIV-2 (EHO)) [µM] | EC50 (HIV-2 (RF)) [µM] | CC50 (in vitro [11]) [µM] | also measured |
| --- | --- | --- | --- | --- | --- | --- | --- | --- | --- | --- | --- | --- | --- | --- | --- | --- | --- | --- | --- | --- | --- |
| CN(C)CCCNC(=O)C1NC(=O)C2NC(=O)C(NC(=O)C3NC(=O)C4NC(=O)C(Cc5ccc(c(Cl)c5)Oc5cc3cc(c5O)Oc3ccc(cc3Cl)C2O)NC(=O)C(N)c2ccc(O)c(c2)Oc2cc(O)cc4c2)c2ccc(O)c(c2)-c2c1cc(O)c(CNC1C3CC4CC(C3)CC1C4)c2O (stereo not shown) [Compound 19] | 12 | > 50 | 18 | > 100 | 13 ± 2.1 | > 500 | 23 | 11.5 ± 2.1 | 9.5 ± 3.5 | 6 ± 1.4 | 6 ± 1.4 | 2.5 ± 0.7 | 9 ± 1.4 | > 500 | > 500 | 8 ± 2.8 | 11 ± 1.4 | 15 | 9.5 ± 3.5 | – | EC50 [1]: 7.5 ± 3.5 µM; selection of resistant virus strains (HIV): failed; EC50 [2]: 8.5 ± 2.1 µM |
| CCCCc1ccc(CN2CCN(Cc3c(O)cc4c(c3O)-c3cc(ccc3O)C3NC(=O)C5NC(=O)C6NC(=O)C(Cc7ccc(c(Cl)c7)Oc7cc5cc(c7O)Oc5ccc(cc5Cl)C(O)C(NC3=O)C(=O)NC4C(=O)NC)NC(=O)C(N)c3ccc(O)c(c3)Oc3cc(O)cc6c3)CC2)cc1 (stereo not shown) [Compound 31] | 9.5 ± 3.5 | ≥ 20 | > 100 | > 100 | 6.5 ± 0.7 | 61 ± 10 | 24 | 5.3 ± 2.5 | 6.6 ± 3.06 | 2.8 ± 0.4 | 2.8 ± 0.4 | 1.7 ± 0.42 | 3.7 ± 0.35 | > 500 | > 500 | 3 ± 1.4 | 6 ± 1.4 | 6.8 ± 0.35 | 3.7 ± 1.77 | – | EC50 [1]: 8.5 ± 2.1 µM; MTC (HEL) (HEL cells [9]; anti-CMV table): 20 to 50 µM; MTC (HEL) (HEL cells [9]; anti-VZV table): 20 to 50 µM; EC50 [2]: 6 ± 1.4 µM; EC50 (VZV (wild-type strains); VZV strain OKA, read-out: EC50 VZV (OKA)): 0.75 µM; EC50 (VZV (wild-type strains); VZV strain YS, read-out: EC50 VZV (YS)): 0.85 µM; CC50 (HEL cells [10]; anti-CMV table): > 200 µM; CC50 (HEL cells [10]; anti-VZV table): > 200 µM; anti-CMV activity (CMV): anti-CMV activity; EC50 (CMV; read-out: EC50 CMV AD-169, CMV strain AD-169, HEL cell cultures): ≥ 20 µM; EC50 (CMV; read-out: EC50 CMV Davis, CMV strain Davis, HEL cell cultures): 10 µM |
| CCCCc1ccc(CN2CCN(Cc3c(O)cc4c(c3O)-c3cc(ccc3O)C3NC(=O)C5NC(=O)C6NC(=O)C(Cc7ccc(c(Cl)c7)Oc7cc5cc(c7O)Oc5ccc(cc5Cl)C(O)C(NC3=O)C(=O)NC4C(=O)NCCCN(C)C)NC(=O)C(N)c3ccc(O)c(c3)Oc3cc(O)cc6c3)CC2)cc1 (stereo not shown) [Compound 30] | 5.5 ± 0.7 | ≥ 50 | 9.2 | > 100 | 7 | 29 ± 7 | 33 | 6 ± 1.4 | ≥ 5 | 2.8 ± 0.4 | 2.8 ± 0.4 | 3 | 4.5 ± 0.7 | > 500 | 108 ± 79 | 5 ± 1.4 | 7.5 ± 0.7 | 11 ± 1.4 | 3.7 ± 1.25 | – | – |
| COC(=O)C1NC(=O)C2NC(=O)C(NC(=O)C(NC(=O)OC(C)(C)C)c3cc(Oc4ccc(CC(NC(=O)OCc5ccccc5)C(=O)O)cc4Cl)c(O)c(c3)Oc3ccc(cc3Cl)C2O)c2ccc(O)c(c2)-c2c(O)cc(O)cc21 (stereo not shown) [Compound 170] | – | – | – | – | – | – | – | – | – | – | – | – | – | – | – | – | – | – | – | > 100 | EC50 (FCV; Felis catus): 23 µM; EC50 [3, 16]: 32 µM; CC50 (in vitro [12]): > 100 µM |
| NC1Cc2ccc(c(Cl)c2)Oc2cc3cc(c2O)Oc2ccc(cc2Cl)C(O)C2NC(=O)C(NC(=O)C3NC(=O)C(c3cc(O)cc(Oc4cc(C5NC(=S)N(c6ccccc6)C5=O)ccc4O)c3)NC1=O)c1ccc(O)c(c1)-c1c(O)cc(O)cc1C(C(=O)O)NC2=O (stereo not shown) [Compound 171] | – | – | – | – | – | – | – | – | – | – | – | – | – | – | – | – | – | – | – | > 100 | EC50 [3, 16]: 29 µM; CC50 (in vitro [12]): > 100 µM |
| NC1C(=O)NC2Cc3ccc(c(Cl)c3)Oc3cc4cc(c3O)Oc3ccc(cc3Cl)C(O)C(C(=O)O)NC(=O)C(c3ccc(O)c(-c5c(O)cc(O)cc5C(N)C(=O)O)c3)NC(=O)C4NC(=O)C(NC2=O)c2cc(O)cc(c2)Oc2cc1ccc2O (stereo not shown) [Compound 172] | – | – | – | – | – | – | – | – | – | – | – | – | – | – | – | – | – | – | – | > 100 | EC50 (FCV; Felis catus): ≥ 100 µM; EC50 [3, 16]: 38 µM; CC50 (in vitro [12]): > 100 µM |
